The source of these data is the supplement of paper PMC8967900.
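Further: ALL cell lines in 384-well plates, five doses spanning 10,000-fold, each plate scaled between vehicle and 100 µmol/L benzalkonium chloride controls, sDSS an adapted area-under-curve metric.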

The first test has as its system CCRF-CEM. Put plainly: selective drug sensitivity score (sDSS, relative to normal bone marrow) (sDSS (score)); higher = more potent and effective on the cell line relative to normal bone marrow cells. The conditions noted are these: 72 h.
For `C[C@H]1C[C@@H]2[C@H]([C@@H](O)C[C@@]3(C)[C@H]2CC[C@]3(O)C(=O)CO)[C@@]2(C)C=CC(=O)C=C12` [Methylprednisolone] (top concentration 10000 nM), the “selective drug sensitivity score” value was 6.4.
On the same count and under the same terms, with `FC(F)(F)c1ccc(/C=C/c2nc(COc3ccc(CCCCn4ccnn4)cc3)co2)cc1` [Mubritinib] (top concentration 1000 nM) the figure was 6.06; with `COc1cc2c(cc1OC(C)C)[C@H](c1ccc(Cl)cc1)N(c1ccc(N(C)C[C@H]3CC[C@H](N4CCN(C)C(=O)C4)CC3)cc1)C(=O)C2` [NVP-CGM097] (top concentration 25000 nM), -4.24; with `CCOc1cc2ncc(C#N)c(Nc3ccc(OCc4ccccn4)c(Cl)c3)c2cc1NC(=O)/C=C/CN(C)C` [Neratinib] (top concentration 1000 nM), 2.48.
Same read-out and setting: under `COc1ncc(-c2ccc3nccc(-c4ccnnc4)c3c2)cc1NS(=O)(=O)c1ccc(F)cc1F` [Omipalisib] (top concentration 1000 nM) stands 12; under `CN1CCN(c2cc(C(=O)Nc3ccc4c(c3)-c3c(c(C(N)=O)nn3-c3ccc(F)cc3)CC4)c(Cl)cn2)CC1` [PHA-408] (top concentration 10000 nM), 0.48.
Still for that read-out and setting: with `OC[C@H]1O[C@@H](n2cnc3c2N=CNC[C@H]3O)C[C@@H]1O` [Pentostatin] (top concentration 10000 nM) the figure was -0.34; with `CC(C)N(C[C@H]1O[C@@H](n2cnc3c(N)ncnc32)[C@H](O)[C@@H]1O)[C@H]1C[C@@H](CCc2nc3cc(C(C)(C)C)ccc3[nH]2)C1` [Pinometostat] (top concentration 1000 nM), 0; with `Cc1ccc(=O)n(-c2ccccc2)c1` [Pirfenidone] (top concentration 10000 nM), 0.

The subject of a further test is CCRF-HSB2. Described as above. The settings on record: 72 h.
`CC(=O)[C@]1(O)Cc2c(O)c3c(c(O)c2[C@@H](O[C@H]2C[C@H](N)[C@H](O)[C@H](C)O2)C1)C(=O)c1ccccc1C3=O` [Idarubicin] (top concentration 1000 nM): the “selective drug sensitivity score” value came to 12.3.
Take `COc1cc2nccc(Oc3ccc(NC(=O)NC4CC4)c(Cl)c3)c2cc1C(N)=O` [Lenvatinib] (top concentration 2500 nM): the “selective drug sensitivity score” value was 5.06.
With `N#Cc1ccc(C(c2ccc(C#N)cc2)n2cncn2)cc1` [Letrozole] (top concentration 10000 nM), the “selective drug sensitivity score” value is -0.04.
On the same count and under the same terms, under `CCNCCS(=O)(=O)NC[C@@]1(c2ccccc2)SC(NC(=O)C(C)(C)C)=NN1C(=O)C(C)(C)C` [Litronesib] (top concentration 1000 nM) stands 21.3.
The same measure, in the same setting: under `CC[C@H](C)C(=O)O[C@H]1C[C@@H](C)C=C2C=C[C@H](C)[C@H](CC[C@@H]3C[C@@H](O)CC(=O)O3)[C@H]21` [Lovastatin] (top concentration 10000 nM) stands -0.1; under `Cn1cc(-c2cnn3c(N)c(Br)c([C@@H]4CCCNC4)nc23)cn1` [MK-8776] (top concentration 2500 nM), 0.64.
Same read-out and setting: under `Cc1cnc(-c2ccccc2C(C)C)nc1NCc1ccc(-n2ccnn2)cc1` [ML323] (top concentration 10000 nM) stands 1.84.
`O=C(CCNC(=O)c1ccc(OC(F)(F)F)cc1)N[C@@H]1CCCc2ccccc21` [ML390] (top concentration 50000 nM): the “selective drug sensitivity score” value is 12.2.
As for `CN(C)C(=N)NC(=N)N` [Metformin] (top concentration 100000 nM), the “selective drug sensitivity score” value was -0.02.
As to `C[C@H]1C[C@@H]2[C@H]([C@@H](O)C[C@@]3(C)[C@H]2CC[C@]3(O)C(=O)CO)[C@@]2(C)C=CC(=O)C=C12` [Methylprednisolone] (top concentration 10000 nM), the “selective drug sensitivity score” value is 13.9.
On the same count and under the same terms, under `FC(F)(F)c1ccc(/C=C/c2nc(COc3ccc(CCCCn4ccnn4)cc3)co2)cc1` [Mubritinib] (top concentration 1000 nM) stands 9.36; under `COc1cc2c(cc1OC(C)C)[C@H](c1ccc(Cl)cc1)N(c1ccc(N(C)C[C@H]3CC[C@H](N4CCN(C)C(=O)C4)CC3)cc1)C(=O)C2` [NVP-CGM097] (top concentration 25000 nM), 8.76.
As for `CCOc1cc2ncc(C#N)c(Nc3ccc(OCc4ccccn4)c(Cl)c3)c2cc1NC(=O)/C=C/CN(C)C` [Neratinib] (top concentration 1000 nM), the “selective drug sensitivity score” value came to 1.78.
Still for that read-out and setting: with `COc1ncc(-c2ccc3nccc(-c4ccnnc4)c3c2)cc1NS(=O)(=O)c1ccc(F)cc1F` [Omipalisib] (top concentration 1000 nM) the figure was 8.4; with `CN1CCN(c2cc(C(=O)Nc3ccc4c(c3)-c3c(c(C(N)=O)nn3-c3ccc(F)cc3)CC4)c(Cl)cn2)CC1` [PHA-408] (top concentration 10000 nM), 1.88.
On the same count and under the same terms, with `OC[C@H]1O[C@@H](n2cnc3c2N=CNC[C@H]3O)C[C@@H]1O` [Pentostatin] (top concentration 10000 nM) the figure was -0.44; with `CC(C)N(C[C@H]1O[C@@H](n2cnc3c(N)ncnc32)[C@H](O)[C@@H]1O)[C@H]1C[C@@H](CCc2nc3cc(C(C)(C)C)ccc3[nH]2)C1` [Pinometostat] (top concentration 1000 nM), 0; with `Cc1ccc(=O)n(-c2ccccc2)c1` [Pirfenidone] (top concentration 10000 nM), 0.

In another test the test system is COG-LL-394h. Described as above. The settings on record: 72 h.
On to `CC(=O)[C@]1(O)Cc2c(O)c3c(c(O)c2[C@@H](O[C@H]2C[C@H](N)[C@H](O)[C@H](C)O2)C1)C(=O)c1ccccc1C3=O` [Idarubicin] (top concentration 1000 nM), for which the “selective drug sensitivity score” value was found to be 7.94.
The same measure, in the same setting: under `COc1cc2nccc(Oc3ccc(NC(=O)NC4CC4)c(Cl)c3)c2cc1C(N)=O` [Lenvatinib] (top concentration 2500 nM) stands 0.26; under `N#Cc1ccc(C(c2ccc(C#N)cc2)n2cncn2)cc1` [Letrozole] (top concentration 10000 nM), -0.04.
Same read-out and setting: with `CCNCCS(=O)(=O)NC[C@@]1(c2ccccc2)SC(NC(=O)C(C)(C)C)=NN1C(=O)C(C)(C)C` [Litronesib] (top concentration 1000 nM) the figure was 7.74; with `CC[C@H](C)C(=O)O[C@H]1C[C@@H](C)C=C2C=C[C@H](C)[C@H](CC[C@@H]3C[C@@H](O)CC(=O)O3)[C@H]21` [Lovastatin] (top concentration 10000 nM), -0.1; with `Cn1cc(-c2cnn3c(N)c(Br)c([C@@H]4CCCNC4)nc23)cn1` [MK-8776] (top concentration 2500 nM), -0.96.
On the same count and under the same terms, with `Cc1cnc(-c2ccccc2C(C)C)nc1NCc1ccc(-n2ccnn2)cc1` [ML323] (top concentration 10000 nM) the figure was 3.64; with `O=C(CCNC(=O)c1ccc(OC(F)(F)F)cc1)N[C@@H]1CCCc2ccccc21` [ML390] (top concentration 50000 nM), -1.2; with `CN(C)C(=N)NC(=N)N` [Metformin] (top concentration 100000 nM), -0.02.
Take `C[C@H]1C[C@@H]2[C@H]([C@@H](O)C[C@@]3(C)[C@H]2CC[C@]3(O)C(=O)CO)[C@@]2(C)C=CC(=O)C=C12` [Methylprednisolone] (top concentration 10000 nM): the “selective drug sensitivity score” value was -2.3.
Still for that read-out and setting: with `FC(F)(F)c1ccc(/C=C/c2nc(COc3ccc(CCCCn4ccnn4)cc3)co2)cc1` [Mubritinib] (top concentration 1000 nM) the figure was 16.2.
On the same count and under the same terms, under `COc1cc2c(cc1OC(C)C)[C@H](c1ccc(Cl)cc1)N(c1ccc(N(C)C[C@H]3CC[C@H](N4CCN(C)C(=O)C4)CC3)cc1)C(=O)C2` [NVP-CGM097] (top concentration 25000 nM) stands 6.56; under `CCOc1cc2ncc(C#N)c(Nc3ccc(OCc4ccccn4)c(Cl)c3)c2cc1NC(=O)/C=C/CN(C)C` [Neratinib] (top concentration 1000 nM), 5.48; under `COc1ncc(-c2ccc3nccc(-c4ccnnc4)c3c2)cc1NS(=O)(=O)c1ccc(F)cc1F` [Omipalisib] (top concentration 1000 nM), -1.1.
The same measure, in the same setting: under `CN1CCN(c2cc(C(=O)Nc3ccc4c(c3)-c3c(c(C(N)=O)nn3-c3ccc(F)cc3)CC4)c(Cl)cn2)CC1` [PHA-408] (top concentration 10000 nM) stands -1.22; under `OC[C@H]1O[C@@H](n2cnc3c2N=CNC[C@H]3O)C[C@@H]1O` [Pentostatin] (top concentration 10000 nM), -0.44; under `CC(C)N(C[C@H]1O[C@@H](n2cnc3c(N)ncnc32)[C@H](O)[C@@H]1O)[C@H]1C[C@@H](CCc2nc3cc(C(C)(C)C)ccc3[nH]2)C1` [Pinometostat] (top concentration 1000 nM), 0.
`Cc1ccc(=O)n(-c2ccccc2)c1` [Pirfenidone] (top concentration 10000 nM): the “selective drug sensitivity score” value worked out at 0.
